The values that follow are results of earlier work, collected in patent US7238683B2, “Fused phenylalanine derivatives as dipeptidyl peptidase-iv inhibitors for the treatment or prevention of diabetes” (Merck & Co., Inc., priority 2003, dated 2007).

One data set concerns the target T1, DP-IV (Homo sapiens, UniProt P27487).
T1 construct: GRP is rapidly degraded in plasma to GRF[3-44]; from tissue

The subject of the next data set is hematopoiesis. The following applies: mouse, cyclophosphamide-induced neutropenia.

T1 sequence (P27487 whole entry): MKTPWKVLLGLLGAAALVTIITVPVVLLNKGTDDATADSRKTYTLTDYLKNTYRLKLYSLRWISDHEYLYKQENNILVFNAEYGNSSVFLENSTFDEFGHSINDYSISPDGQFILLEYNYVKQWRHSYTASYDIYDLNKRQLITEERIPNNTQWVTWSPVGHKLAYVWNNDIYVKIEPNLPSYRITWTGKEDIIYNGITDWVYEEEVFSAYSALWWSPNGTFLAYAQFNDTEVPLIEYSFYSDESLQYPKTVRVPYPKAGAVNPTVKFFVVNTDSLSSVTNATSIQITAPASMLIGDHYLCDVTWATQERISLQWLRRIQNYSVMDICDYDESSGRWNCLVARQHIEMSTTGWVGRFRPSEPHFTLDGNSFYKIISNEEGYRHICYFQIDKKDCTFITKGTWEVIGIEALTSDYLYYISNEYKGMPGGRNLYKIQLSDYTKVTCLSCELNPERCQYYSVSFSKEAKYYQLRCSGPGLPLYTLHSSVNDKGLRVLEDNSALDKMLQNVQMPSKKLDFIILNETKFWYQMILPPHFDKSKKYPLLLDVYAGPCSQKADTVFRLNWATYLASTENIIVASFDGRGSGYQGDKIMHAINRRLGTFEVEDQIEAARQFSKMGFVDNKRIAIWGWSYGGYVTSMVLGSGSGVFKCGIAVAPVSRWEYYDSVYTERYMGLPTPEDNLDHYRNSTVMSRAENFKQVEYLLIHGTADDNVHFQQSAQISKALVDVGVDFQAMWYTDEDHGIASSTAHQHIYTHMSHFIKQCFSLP

Turning to `CC[C@H](C)[C@H](N)C(=O)N1CCC[C@H]1C(=O)N[C@H](C(=O)O)[C@@H](C)CC` [diprotin A], the “degradation of GRF in plasma to GRF[3-44]” value on DP-IV is given as “prevented”. On to `CC(C)[C@H](N)C(=O)N1CCC[C@H]1B(O)O` [Val-Boro-Pro], for which the effect on hematopoiesis result in the data set with hematopoiesis is on record as “stimulated hematopoiesis”.
